Assay results taken from ChEMBL document CHEMBL5500367, “Improving tumor sensitivity by the introduction of an ester chain to triaryl derivatives targeting PD-1/PD-L1” (Eur J Med Chem, 2024).
Active and inactive are the calls of the source. The calls are words filed in the database; no cut-off is given here.

Assays:
[1] = biological target: Programmed cell death protein 1/Programmed cell death 1 ligand 1 (Homo sapiens, UniProt Q9NZQ7); experiment: Inhibition of PD-1/PD-L1 (unknown origin) interaction incubated for 15 mins by HTRF assay; assay type: protein-complex assay
Sequence of Programmed cell death protein 1/Programmed cell death 1 ligand 1 (Q15116 whole entry): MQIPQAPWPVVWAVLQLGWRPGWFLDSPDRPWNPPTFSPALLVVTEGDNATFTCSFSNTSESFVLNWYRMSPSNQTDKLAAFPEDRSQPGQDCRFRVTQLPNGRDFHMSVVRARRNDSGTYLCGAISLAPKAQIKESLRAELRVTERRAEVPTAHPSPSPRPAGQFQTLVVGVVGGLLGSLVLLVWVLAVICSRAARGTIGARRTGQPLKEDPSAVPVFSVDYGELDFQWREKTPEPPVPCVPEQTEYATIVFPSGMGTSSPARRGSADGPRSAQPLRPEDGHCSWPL
Sequence of Programmed cell death protein 1/Programmed cell death 1 ligand 1 (Q9NZQ7 whole entry): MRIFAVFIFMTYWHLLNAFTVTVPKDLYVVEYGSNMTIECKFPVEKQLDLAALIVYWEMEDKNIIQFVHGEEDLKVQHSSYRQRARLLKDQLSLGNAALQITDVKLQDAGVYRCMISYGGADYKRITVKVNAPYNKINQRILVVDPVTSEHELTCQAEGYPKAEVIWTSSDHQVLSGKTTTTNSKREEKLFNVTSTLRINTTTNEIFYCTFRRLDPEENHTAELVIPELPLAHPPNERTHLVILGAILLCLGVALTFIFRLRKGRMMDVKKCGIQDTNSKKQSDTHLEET

A549 [2] = experiment: Cytotoxicity against human A549 cells assessed as decrease in cell viability at 2.5 to 10 uM incubated for 48 hrs by MTT assay; assay type: functional, cell-based; conditions: dose 2.5-10 µM
[3] = Cytotoxicity against human PBMC cells assessed as decrease in cell viability at 2.5 to 10 uM incubated for 48 hrs by MTT assay; assay type: toxicity, cell-based; conditions: dose 2.5-10 µM
A549 [4] = experiment: Cytotoxicity against human A549 cells assessed as inhibition of cell viability at 10 uM preincubated with A549 cells for 2 hrs followed by co-culture with CD3/CD28/CD2-activated PBMC cells for 48 hrs by MTT assay relative to control; assay type: functional; conditions: time 50 hrs
[5] = Metabolic stability in human liver microsomes assessed as half life by LC-MS/MS analysis; assay type: ADME, Microsome
NCI-H1299 = experiment: Cytotoxicity against human NCI-H1299 cells assessed as inhibition of cell viability incubated for 72 hrs by MTT assay; assay type: functional, cell-based; conditions: NCI-H1299, 72 h
[6] = biological target: Programmed cell death 1 ligand 1 (Homo sapiens, UniProt Q9NZQ7)
Sequence of Programmed cell death 1 ligand 1 (Q9NZQ7 whole entry): as above
Description: Binding affinity to CM5 chip immobilized recombinant human PD-L1 assessed as association constant by SPR analysis

A549 [7] = experiment: Cytotoxicity against human A549 cells assessed as inhibition of cell viability incubated for 72 hrs by MTT assay; assay type: functional, cell-based; conditions: A549, 72 h
HCT-116 = experiment: Cytotoxicity against human HCT-116 cells assessed as inhibition of cell viability incubated for 72 hrs by MTT assay; assay type: functional, cell-based; conditions: HCT-116, 72 h
4T1 [8] = experiment: Antitumor activity against mouse 4T1 cells allografted in BALB/c mouse assessed as increase in CD8+ cell infiltration administered intraperitoneally treated for 21 days consecutively by IHC analysis; assay type: functional, cell-based; conditions: dose 10-20 mg/kg, route ip, time 21.0 day
MDA-MB-231 = experiment: Cytotoxicity against human MDA-MB-231 cells assessed as inhibition of cell viability incubated for 72 hrs by MTT assay; assay type: functional, cell-based; conditions: MDA-MB-231, 72 h
4T1 [9] = experiment: Antitumor activity against mouse 4T1 cells allografted in BALB/c mouse at 10 mg/kg, ip treated for 21 days consecutively relative to control; assay type: functional; conditions: 4T1, 504 h, time 21 day, read-out: TGI
[10] = Toxicity in BALB/c mouse allografted with mouse 4T1 cells assessed as animal death at 10 to 20 mg/kg, ip treated for 21 days consecutively; assay type: organism-based; conditions: in vivo, 504 h, dose 10-20 mg/kg, time 21 day
[11] = Metabolic stability in human liver microsomes assessed as intrinsic clearance by LC-MS/MS analysis; assay type: ADME, Microsome
4T1 [12] = experiment: Antitumor activity against mouse 4T1 cells allografted in BALB/c mouse at 20 mg/kg, ip treated for 21 days consecutively relative to control; assay type: functional; conditions: 4T1, 504 h, time 21 day, read-out: TGI
[13] = Toxicity in BALB/c mouse allografted with mouse 4T1 cells assessed as drug tolerance at 10 to 20 mg/kg, ip treated for 21 days consecutively; assay type: organism-based; conditions: in vivo, 504 h, dose 10-20 mg/kg, time 21 day
[14] = Toxicity in BALB/c mouse allografted with mouse 4T1 cells assessed as body weight loss at 10 to 20 mg/kg, ip treated for 21 days consecutively; assay type: organism-based; conditions: in vivo, 504 h, dose 10-20 mg/kg, time 21 day

Q: Which IC50 [1] does the source give for `Cc1c(C(=O)Oc2ccc(CNC(CO)(CO)CO)cc2)cccc1-c1ccccc1` here?
A: 25.6 nM

Q: With `Cc1c(COc2cc(OCc3cccc(C#N)c3)c(CN3C[C@H](O)C[C@@H]3C(=O)O)cc2Cl)cccc1-c1ccc2c(c1)OCCO2` as the compound, how does the Activity (A549 [2]) read?
A: inactive

Q: What about the Activity [3] of the same compound?
A: Non-Toxic

Q: For `Cc1c(C(=O)Oc2ccc(CN3C[C@H](O)C[C@H]3C(=O)O)c(OCc3cccc(C#N)c3)c2)cccc1-c1ccccc1`, which inhibition at 10 µM (A549 [4]) is on record?
A: 76.5%

Q: And the t1/2 [5]?
A: 18.8 min

Q: And the IC50 (NCI-H1299)?
A: > 20000 nM

Q: What about the Ka [6] of the same compound?
A: 7.9 10^5/M/s

Q: And the IC50 (A549 [7])?
A: > 20000 nM

Q: What about the IC50 (HCT-116) of the same compound?
A: > 20000 nM

Q: And the Activity (4T1 [8])?
A: Dose-Dependent Effect

Q: What about the IC50 [1] of the same compound?
A: 1.21 nM

Q: What about the IC50 (MDA-MB-231) of the same compound?
A: > 20000 nM

Q: And the inhibition in vivo at 10 mg/kg (4T1 [9])?
A: 49.4%

Q: What about the Activity [10] of the same compound?
A: Non-Toxic

Q: And the Activity (A549 [2])?
A: inactive

Q: What about the CLH [11] of the same compound?
A: 100 µL/min/mg

Q: And the inhibition in vivo at 20 mg/kg (4T1 [12])?
A: 67.8%

Q: What about the Activity [3] of the same compound?
A: Non-Toxic

Q: What about the Activity [13] of the same compound?
A: Non-Toxic

Q: And the Activity [14]?
A: Non-Toxic

Q: Which IC50 (NCI-H1299) does the source give for `COc1cc(OC(=O)c2cccc(-c3ccccc3)c2C)ccc1CN[C@@H](CO)C(=O)O` here?
A: > 20000 nM

Q: And the IC50 (A549 [7])?
A: > 20000 nM

Q: What about the IC50 (HCT-116) of the same compound?
A: > 20000 nM

Q: What about the IC50 [1] of the same compound?
A: 27.3 nM

Q: And the IC50 (MDA-MB-231)?
A: > 20000 nM

Q: What about the Activity (A549 [2]) of the same compound?
A: inactive

Q: And the Activity [3]?
A: Non-Toxic

Q: With `COc1cc(OC(=O)c2cccc(-c3ccccc3)c2C)ccc1CN1CCC(O)CC1` as the compound, how does the IC50 [1] read?
A: 78.6 nM

Q: With `Cc1c(C(=O)Oc2cc(OCc3cccc(C#N)c3)c(CNC(CO)CO)cc2Cl)cccc1-c1ccccc1` as the compound, how does the IC50 [1] read?
A: 118 nM

Q: With `Cc1cc(OC(=O)c2cccc(-c3ccccc3)c2C)cc(OCc2cccc(C#N)c2)c1CNC(CO)(CO)CO` as the compound, how does the IC50 [1] read?
A: 133 nM

Q: For `Cc1cc(OC(=O)c2cccc(-c3ccccc3)c2C)cc(OCc2cccc(C#N)c2)c1CNCCO`, which IC50 [1] is on record?
A: 271 nM

Q: Which results are given for `COc1cc(OCc2cccc(-c3ccccc3)c2C)cc(OC)c1CN1CCCC[C@H]1C(=O)O`?
A: t1/2 [5]: 14.2 min; Ka [6]: 1.17 10^5/M/s; Activity (A549 [2]): inactive; CLH [11]: 216 µL/min/mg; inhibition in vivo at 20 mg/kg (4T1 [12]): 33.1%; Activity [3]: Non-Toxic

Q: Which IC50 [1] does the source give for `COc1cc(OC(=O)c2cccc(-c3ccccc3)c2C)ccc1CNCCNC(C)=O` here?
A: 893 nM

Q: Which IC50 [1] does the source give for `COc1cc(OC(=O)c2cccc(-c3ccccc3)c2C)cc(OC)c1CNCC(O)CO` (configuration not stated) here?
A: 228 nM

Q: For `COc1cc(OC(=O)c2cccc(-c3ccccc3)c2C)ccc1CNC[C@H](O)CO`, which IC50 [1] is on record?
A: 381 nM

Q: For `COc1cc(OC(=O)c2cccc(-c3ccccc3)c2C)ccc1CNC[C@@H](O)CO`, which IC50 [1] is on record?
A: 302 nM

Q: With `COc1cc(OC(=O)c2cccc(-c3ccccc3)c2C)ccc1CNCCCO` as the compound, how does the IC50 [1] read?
A: > 1000 nM

Q: With `COc1cc(OC(=O)c2cccc(-c3ccccc3)c2C)ccc1CNCCN(C)C` as the compound, how does the IC50 [1] read?
A: 358 nM

Q: For `CC(=O)NCCNCc1ccc(OC(=O)c2cccc(-c3ccccc3)c2C)cc1OCc1cccc(C#N)c1`, which IC50 [1] is on record?
A: 506 nM

Q: With `COc1cc(OC(=O)c2cccc(-c3ccccc3)c2C)ccc1CN1C[C@H](O)C[C@H]1C(=O)O` as the compound, how does the IC50 [1] read?
A: 113 nM

Q: With `Cc1c(C(=O)Oc2ccc(CN[C@@H](CO)C(=O)O)c(OCc3cccc(C#N)c3)c2C)cccc1-c1ccccc1` as the compound, how does the IC50 [1] read?
A: 231 nM

Q: With `COc1cc(OC(=O)c2cccc(-c3ccccc3)c2C)ccc1CNCCO` as the compound, how does the IC50 [1] read?
A: 263 nM

Q: With `Cc1cc(OC(=O)c2cccc(-c3ccccc3)c2C)cc(OCc2cccc(C#N)c2)c1CN[C@H](CO)C(=O)O` as the compound, how does the IC50 [1] read?
A: 39.5 nM

Q: With `COc1cc(OC(=O)c2cccc(-c3ccccc3)c2C)ccc1CN1CCCC[C@H]1C(=O)O` as the compound, how does the IC50 [1] read?
A: > 1000 nM

Q: Which IC50 [1] does the source give for `Cc1c(C(=O)Oc2ccc(CN[C@H](CO)C(=O)O)c(OCc3cccc(C#N)c3)c2)cccc1-c1ccccc1` here?
A: 24 nM

Q: For `Cc1c(C(=O)Oc2ccc(CNCCO)c(OCc3cccc(C#N)c3)c2)cccc1-c1ccccc1`, which IC50 (NCI-H1299) is on record?
A: 7400 nM

Q: And the IC50 (A549 [7])?
A: 12600 nM

Q: What about the IC50 (HCT-116) of the same compound?
A: 7350 nM

Q: And the IC50 [1]?
A: 13.2 nM

Q: And the IC50 (MDA-MB-231)?
A: 7680 nM

Q: What about the Activity (A549 [2]) of the same compound?
A: inactive

Q: What about the Activity [3] of the same compound?
A: Non-Toxic

Q: With `COc1cc(OC(=O)c2cccc(-c3ccccc3)c2C)ccc1CNC(CO)CO` as the compound, how does the IC50 (NCI-H1299) read?
A: 11400 nM

Q: And the IC50 (A549 [7])?
A: 18800 nM

Q: What about the IC50 (HCT-116) of the same compound?
A: 12200 nM

Q: What about the IC50 [1] of the same compound?
A: 27.1 nM

Q: What about the IC50 (MDA-MB-231) of the same compound?
A: > 20000 nM

Q: Which results are given for `Cc1cc(OC(=O)c2cccc(-c3ccccc3)c2C)ccc1CN[C@@H](CO)C(=O)O`?
A: IC50 (NCI-H1299): > 20000 nM; Ka [6]: 5.31 10^5/M/s; IC50 (A549 [7]): > 20000 nM; IC50 (HCT-116): > 20000 nM; IC50 [1]: 2.25 nM; IC50 (MDA-MB-231): > 20000 nM; Activity (A549 [2]): inactive; Activity [3]: Non-Toxic

Q: For `Cc1c(C(=O)Oc2ccc(CN[C@H](CO)C(=O)O)cc2)cccc1-c1ccccc1`, which IC50 [1] is on record?
A: 55.1 nM

Q: Which IC50 [1] does the source give for `Cc1cc(OC(=O)c2cccc(-c3ccccc3)c2C)cc(OCc2cccc(C#N)c2)c1CNC[C@H](O)CO` here?
A: 254 nM

Q: Which IC50 [1] does the source give for `Cc1c(C(=O)Oc2ccc(CNC(CO)(CO)CO)c(OCc3cccc(C#N)c3)c2C)cccc1-c1ccccc1` here?
A: 109 nM

Q: With `Cc1cc(OC(=O)c2cccc(-c3ccccc3)c2C)cc(OCc2cccc(C#N)c2)c1CN[C@@H](CO)C(=O)O` as the compound, how does the IC50 [1] read?
A: 64.3 nM

Q: Which IC50 (NCI-H1299) does the source give for `Cc1cc(OC(=O)c2cccc(-c3ccccc3)c2C)ccc1CNC(CO)(CO)CO` here?
A: 16500 nM

Q: What about the Ka [6] of the same compound?
A: 4.37 10^5/M/s

Q: And the IC50 (A549 [7])?
A: 18600 nM

Q: What about the IC50 (HCT-116) of the same compound?
A: 12200 nM

Q: What about the IC50 [1] of the same compound?
A: 1.98 nM

Q: And the IC50 (MDA-MB-231)?
A: 18300 nM

Q: Which IC50 (NCI-H1299) does the source give for `Cc1c(C(=O)Oc2ccc(CN[C@@H](CO)C(=O)O)cc2)cccc1-c1ccccc1` here?
A: > 20000 nM

Q: And the IC50 (A549 [7])?
A: > 20000 nM

Q: And the IC50 (HCT-116)?
A: > 20000 nM

Q: What about the IC50 [1] of the same compound?
A: 17.5 nM

Q: And the IC50 (MDA-MB-231)?
A: > 20000 nM

Q: What about the Activity (A549 [2]) of the same compound?
A: inactive

Q: And the Activity [3]?
A: Non-Toxic

Q: With `Cc1c(C(=O)Oc2ccc(CN[C@@H](CO)C(=O)O)c(OCc3cccc(C#N)c3)c2)cccc1-c1ccccc1` as the compound, how does the IC50 [1] read?
A: > 1000 nM

Q: Which IC50 [1] does the source give for `COc1cc(OC(=O)c2cccc(-c3ccccc3)c2C)ccc1CNC(CO)(CO)CO` here?
A: 72.4 nM

Q: For `Cc1c(C(=O)Oc2ccc(CNC(CO)(CO)CO)c(Br)c2)cccc1-c1ccccc1`, which IC50 (NCI-H1299) is on record?
A: 18700 nM

Q: And the Ka [6]?
A: 1.16 10^5/M/s

Q: What about the IC50 (A549 [7]) of the same compound?
A: > 20000 nM

Q: And the IC50 (HCT-116)?
A: > 20000 nM

Q: What about the IC50 [1] of the same compound?
A: 2.62 nM

Q: And the IC50 (MDA-MB-231)?
A: > 20000 nM

Q: And the Activity (A549 [2])?
A: inactive

Q: What about the Activity [3] of the same compound?
A: Non-Toxic
